In patent publication US20120232044A1, “METHODS AND COMPOSITIONS FOR TREATING HYPERURICEMIA AND METABOLIC DISORDERS ASSOCIATED WITH HYPERURICEMIA” (TWi Biotechnology, Inc., priority 2011, published 2012):

Experiments:
[1] = test system: subjects with chronic gout and hyperuricemia; experiment: Case study of diacerein and allopurinol combination therapy in subjects with chronic gout and hyperuricemia; type: in vivo, human; conditions: for blood level of uric acid: visit 1 before diacerein
Protocol: In DIA-DM01 trial described in Example 1, two subjects enrolled in the diacerein group had chronic gout history and were currently treating with allopurinol.
Case 1: A person with history of chronic gout and hyperuricemia was treated with allopurinol since Jan. 2, 2009. Before they were enrolled in the diacerein trial, their medical treatment was unsatisfactory, and their blood level of uric acid was 8.3 mg/dL in visit 1 (Jul. 8, 2009).
Case 2: A person with history of chronic gout and hyperuricemia was treated with allopurinol since Aug. 27, 2009. Before they were enrolled in the diacerein trial, their medical treatment was also unsatisfactory, and their blood level of uric acid was 9.5 mg/dL in visit 1 (Dec. 18, 2009).

[2] = test system: type 2 diabetes patients with micro-albuminuria, hyperuricemia sub-group (baseline blood uric acid higher than 7.0 mg/dL); experiment: DIA-DM01 trial, hyperuricemia sub-group: blood uric acid level under diacerein 50 mg bid versus placebo; type: in vivo, human; conditions: for patients whose blood uric acid levels achieved normal range: normal: females below 6.0 mg/dL, males below 7.0 mg/dL
Description: Objectives: To evaluate the efficacy and safety of diacerein for the treatment of albuminuria in patients with type 2 diabetes mellitus.
Primary Endpoints: To compare the change from baseline in the urinary albumin to creatinine ratio (UACR) after 24 weeks of diacerein or placebo administrated.
Subjects: Male or female type 2 diabetes patients (BMI≦35 kg/m^2) with micro-albuminuria.
Procedure: This was a Phase II, prospective, randomized, double-blind, and parallel comparison study comparing diacerein 50 mg bid (twice a day) versus placebo to albuminuria in patients with type 2 diabetes mellitus.
At the screening visit, patients who fulfilled the enrollment criteria and gave written informed consent entered a three to ten days screening period. During the screening period, the baseline UACR was evaluated. If the baseline UACR was greater than 50 mg/g, the patients were randomized into the […] treatment period in the 1:1 ratio (diacerein versus placebo). All participants were required to be taking stable dose of angiotensin-converting-enzyme (ACE) inhibitors, angiotensin receptor blockers (ARBs), or both, for three months prior to the study. These agents were continued throughout the trial. The hypoglycemic medications were maintained during the study period. The class and/or dosage were changed if clinically indicated. An introduction of a new treatment or any regimen change to the pre-existing co-medication that had hypoglycemic or hyperglycemic potential was allowed during the study with the consent of the clinical investigator.
The hyperuricemia sub-group was assembled from among the subjects with baseline blood uric acid level higher than 7.0 mg/dL. The results of blood uric acid level in the two treatment groups were analyzed by paired t-test of within-group changes.
Subjects (n=76) with diabetic microalbinuria were randomized in a 1:1 ratio to receive twice-daily diacerein 50 mg (n=38), or placebo (n=38) for 24 weeks. The baseline blood levels of uric acid in nine subjects of the diacerein group (2 females and 7 males) and twelve subjects of the placebo group (2 females and 10 males) in the hyperuricemia subgroup were above 7.0 mg/dL, and the mean levels were 8.06 mg/dL and 8.38 mg/dL respectively.

SMILES | blood level of uric acid ([1]; Case 1, on allopurinol alone) | blood level of uric acid ([1]; Case 2, on allopurinol alone) | patients whose blood uric acid levels achieved normal range ([2]; 24-week treatment with diacerein) | Uric Acid, Mean ([2]; Baseline (before treatment), diacerein group, N=9) | Uric Acid, Mean ([2]; Baseline (before treatment), diacerein group, N=9, listed as Diacerein) | patients whose blood uric acid levels achieved normal range ([2]; after 12 weeks of diacerein) | blood uric acid levels maintained during the treatment period ([2]; diacerein 50 mg bid, below the upper end of the normal range) | Uric Acid, Mean ([2]; week 12, diacerein 50 mg bid, N=9) | Uric Acid, Change from baseline ([2]; week 12, diacerein 50 mg bid, N=9, p=0.0037 vs. baseline) | Uric Acid, Mean ([2]; week 24, diacerein 50 mg bid, N=7) | Uric Acid, Change from baseline ([2]; week 24, diacerein 50 mg bid, N=7, p=0.0060 vs. baseline) | blood uric acid level ([1]; Case 1, after 24 weeks of diacerein add-on to allopurinol) | acute flares during the treatment period ([1]; Case 1, diacerein add-on to allopurinol, 24 weeks) | blood uric acid level ([1]; Case 2, after 12 weeks of diacerein add-on to allopurinol)
Oc1ncnc2[nH]ncc12 [allopurinol] | 8.3 mg/dL | 9.5 mg/dL | – | – | – | – | – | – | – | – | – | – | – | –
CC(=O)Oc1cccc2c1C(=O)c1c(OC(C)=O)cc(C(=O)O)cc1C2=O [diacerein, 4,5-bis(acetyloxy)-9,10-dioxo-2-anthracene carboxylic acid] | – | – | four of the remaining seven patients | 8.06 mg/dL | 8.0667 mg/dL | six of the nine patients | below 7.0 mg/dL | 6.6667 mg/dL | -1.40 mg/dL | 6.5571 mg/dL | -1.34 mg/dL | 7.5 mg/dL | No acute flares were observed | 6.4 mg/dL
